Among the test systems are Hs-578T; MOLT-4; MCF7; OVCAR-3; NCI/ADR-RES; SF-268; MDA-MB-435; NCI-H522; COLO 205; DU-145; RXF 393; SNB-75; SK-MEL-28; HOP-62; PC-3; K562; SN12C; SK-OV-3; UACC-62; IGROV-1.
What all share (experiment): growth of human tumour cells (NCI), 48 h

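Step 1: Grow cells in 96-well plates. Step 2: Expose to compound for 48 hours at 5 concentrations. Step 3: Interpolate endpoints linearly; if unreached, use highest concentration. At the GI50, growth is halved.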 The source made the active and inactive calls. No stated cut-off is given here; in the data, active = GI50 up to about 1.1 µM and inactive = higher.

Turning to `CS(=O)(=O)OCCN(CCOS(C)(=O)=O)c1ccc(/C=N/c2ccc(-c3csc(Cc4ccccc4)n3)cc2)c(Cl)c1`, the GI50 in the experiment on Hs-578T is 28.4 µM (inactive); with MOLT-4 it was 17.2 µM (inactive); in the experiment with MCF7, 2.65 µM (inactive); in the experiment with OVCAR-3, 17.7 µM (inactive); in the experiment with NCI/ADR-RES, 23.2 µM (inactive); in the experiment on SF-268, 27.4 µM (inactive). The GI50 was 21 µM (inactive) with MDA-MB-435; > 43.4 µM (inactive) with NCI-H522; 15.1 µM (inactive) in the experiment with COLO 205; 30.4 µM (inactive) in the experiment on DU-145; 33.7 µM (inactive) in the experiment on RXF 393; 15.5 µM (inactive) with SNB-75. In addition, the GI50 was 45.1 µM (inactive) in the experiment with SK-MEL-28; 13 µM (inactive) in the experiment on HOP-62; 22.5 µM (inactive) in the experiment on PC-3; 12.5 µM (inactive) in the experiment on K562; 28.8 µM (inactive) in the experiment on SN12C; 43.5 µM (inactive) with SK-OV-3. Also, the figures for the GI50 in the experiment with UACC-62 and in the experiment on IGROV-1 were 6.5 µM (inactive) and 18.2 µM (inactive), respectively.
For the molecule `Cc1cc(S(=O)(=O)Nc2nc(Nc3ccccc3)n[nH]2)c(SCC(=O)O)cc1Cl`, the GI50 in the experiment with Hs-578T, with MOLT-4, in the experiment with MCF7, in the experiment with OVCAR-3, with NCI/ADR-RES and with SF-268 was > 100 µM (inactive) in each case. Moreover, the GI50 in the experiment with MDA-MB-435, with NCI-H522, in the experiment on COLO 205, in the experiment with DU-145, with RXF 393 and with SNB-75 was > 100 µM (inactive) in each case. Besides, the GI50 in the experiment with SK-MEL-28, with HOP-62, in the experiment with PC-3, in the experiment with K562, in the experiment on SN12C and in the experiment on SK-OV-3 was > 100 µM (inactive) in each case. The GI50 with UACC-62 and in the experiment on IGROV-1 was > 100 µM (inactive) each time.
For `Cc1c(CN2CCN(C)CC2)c(CN2CCN(C)CC2)c(C)n1-c1ccc(Cl)cc1`, the GI50 was 24 µM (inactive) in the experiment with Hs-578T; 30.3 µM (inactive) with MOLT-4; 39.5 µM (inactive) in the experiment with MCF7; 94.8 µM (inactive) in the experiment on OVCAR-3; > 100 µM (inactive) in the experiment with NCI/ADR-RES; 44.4 µM (inactive) with SF-268. The GI50 in the experiment on MDA-MB-435 was 25.1 µM (inactive); in the experiment with NCI-H522, 20.5 µM (inactive); with COLO 205, 20.4 µM (inactive); in the experiment with DU-145, > 100 µM (inactive); in the experiment on RXF 393 it was 17.1 µM (inactive); with SNB-75 it was 25.9 µM (inactive). For the same molecule, the GI50 in the experiment on SK-MEL-28 is 19.5 µM (inactive); in the experiment on HOP-62 it was 35.4 µM (inactive); in the experiment on PC-3 it was 29.4 µM (inactive); in the experiment with K562 it was 23.4 µM (inactive); in the experiment on SN12C it was > 100 µM (inactive); in the experiment with SK-OV-3, > 100 µM (inactive). Further, the GI50 in the experiment with UACC-62 was 16.7 µM (inactive); in the experiment on IGROV-1, 31.2 µM (inactive).
Take `C=C1C(=O)OC2/C=C(/C)C(OC(C)=O)C/C=C(\C)C(OC(=O)C3(C)OC3C)C(O)C12` (stereo not given): the GI50 in the experiment on Hs-578T is > 100 µM (inactive); in the experiment on MOLT-4, 36.9 µM (inactive); in the experiment with MCF7, 51.1 µM (inactive); in the experiment with OVCAR-3, > 100 µM (inactive); in the experiment with NCI/ADR-RES, > 100 µM (inactive); in the experiment on SF-268, > 100 µM (inactive). The GI50 in the experiment with MDA-MB-435 is > 100 µM (inactive); in the experiment with NCI-H522, 14.9 µM (inactive); with COLO 205, 55.7 µM (inactive); with DU-145, > 100 µM (inactive); in the experiment on RXF 393, > 100 µM (inactive); in the experiment with SNB-75, 97.7 µM (inactive). Also, the GI50 with SK-MEL-28 was 71 µM (inactive); in the experiment on HOP-62 it was > 100 µM (inactive); with PC-3 it was > 100 µM (inactive); with K562, 40.8 µM (inactive); with SN12C, > 100 µM (inactive); with SK-OV-3, > 100 µM (inactive). In addition, the GI50 in the experiment with UACC-62 and with IGROV-1 was > 100 µM (inactive) each time.
For `O=c1oc2ccccc2cc1-c1csc(Nc2ccc(F)cc2)n1`, the GI50 was 2.36 µM (inactive) in the experiment on Hs-578T; 5.18 µM (inactive) in the experiment on MOLT-4; 2.77 µM (inactive) in the experiment on MCF7; 6.55 µM (inactive) with OVCAR-3; 3.46 µM (inactive) with NCI/ADR-RES; 3.15 µM (inactive) in the experiment on SF-268. Moreover, the GI50 was 4.32 µM (inactive) in the experiment with MDA-MB-435; 1.91 µM (inactive) in the experiment with NCI-H522; 4.47 µM (inactive) in the experiment on COLO 205; 2.89 µM (inactive) in the experiment with DU-145; 6.56 µM (inactive) in the experiment with RXF 393; 2.07 µM (inactive) in the experiment on SNB-75. Moreover, the GI50 in the experiment with SK-MEL-28 is 0.382 µM (active); in the experiment with HOP-62, 2.99 µM (inactive); with PC-3, 5.43 µM (inactive); in the experiment on K562, 2.56 µM (inactive); with SN12C it was 3.01 µM (inactive); in the experiment with SK-OV-3, 5.77 µM (inactive). For the same molecule, the GI50 in the experiment with UACC-62 is 12.6 µM (inactive); with IGROV-1, 4.99 µM (inactive).
As for `N=C(N)CCNC(=O)C1CCC(N)=N1` (stereo not given), the GI50 in the experiment on Hs-578T is 8.36 µM (inactive); in the experiment on MOLT-4 it was 12.2 µM (inactive); with MCF7, 16.2 µM (inactive); with OVCAR-3 it was 9.82 µM (inactive); in the experiment with NCI/ADR-RES it was 26.2 µM (inactive); with SF-268, 10.3 µM (inactive). In addition, the GI50 is 31.5 µM (inactive) with MDA-MB-435; 23 µM (inactive) in the experiment on NCI-H522; 5.61 µM (inactive) in the experiment with COLO 205; 4.98 µM (inactive) in the experiment on DU-145; 35.1 µM (inactive) in the experiment on RXF 393; 12.2 µM (inactive) with SNB-75. Besides, the GI50 with SK-MEL-28 was 19.2 µM (inactive); with HOP-62, 4.38 µM (inactive); in the experiment with PC-3 it was 6 µM (inactive); in the experiment with K562, 13.2 µM (inactive); with SN12C, 5.27 µM (inactive); in the experiment on SK-OV-3 it was 9.59 µM (inactive). In addition, the results for the GI50 with UACC-62 and in the experiment with IGROV-1 were 14 µM (inactive) and 8.49 µM (inactive), respectively.
In the case of `COC(=O)c1cc(C(=CCC[C@H]2CC[C@@]3(C)C(CCC4C3CC[C@@]3(C)C4CC[C@@H]3C(C)CCCC(C)C)C2)c2cc(Cl)c(OC(=O)c3ccccc3)c(C(=O)OC)c2)cc(Cl)c1OC(=O)c1ccccc1` (stereo not given in full), the GI50 with Hs-578T, with MOLT-4, in the experiment on MCF7, with OVCAR-3, in the experiment with NCI/ADR-RES and with SF-268 was > 10 µM (inactive) in each case. In addition, the GI50 with MDA-MB-435, with NCI-H522, in the experiment with COLO 205, in the experiment with DU-145, with RXF 393 and in the experiment with SNB-75 was > 10 µM (inactive) throughout. For the same molecule, the GI50 in the experiment on SK-MEL-28, in the experiment with HOP-62, with PC-3, with K562, with SN12C and in the experiment on SK-OV-3 was > 10 µM (inactive) throughout. In addition, the GI50 with UACC-62 and in the experiment with IGROV-1 was > 10 µM (inactive) in each case.
Turning to `CCNC(C)(C)C(SS)c1ccc(Br)cc1` (stereo not given), the GI50 with Hs-578T is > 100 µM (inactive); in the experiment on MOLT-4, 21.1 µM (inactive); in the experiment with MCF7, 39.4 µM (inactive); with OVCAR-3, 46.6 µM (inactive); in the experiment with NCI/ADR-RES, > 100 µM (inactive); in the experiment with SF-268, 60.8 µM (inactive). The GI50 was 34.8 µM (inactive) in the experiment with MDA-MB-435; 18.4 µM (inactive) in the experiment on NCI-H522; 62.1 µM (inactive) with COLO 205; > 100 µM (inactive) in the experiment with DU-145; 46 µM (inactive) in the experiment on RXF 393; > 100 µM (inactive) with SNB-75. The GI50 in the experiment with SK-MEL-28 was > 100 µM (inactive); with HOP-62, 63.1 µM (inactive); with PC-3, 60.5 µM (inactive); in the experiment on K562, 36.1 µM (inactive); with SN12C it was 32.6 µM (inactive); in the experiment with SK-OV-3 it was > 100 µM (inactive). Moreover, the GI50 in the experiment with UACC-62 was 88.9 µM (inactive); in the experiment on IGROV-1, > 100 µM (inactive).
As for `CN(Cc1cnc2nc(N)nc(N)c2n1)c1ccc(C(=O)N[C@@H](CCC(=O)O)C(=O)O)cc1` [METHOTREXATE], the GI50 with Hs-578T is 192 µM (inactive); in the experiment on MOLT-4, 0.0326 µM (active); in the experiment with MCF7, 0.0486 µM (active); in the experiment with OVCAR-3, 0.433 µM (active); with NCI/ADR-RES, 0.0929 µM (active); in the experiment on SF-268, 0.0409 µM (active). Besides, the GI50 with MDA-MB-435 is 0.0341 µM (active); in the experiment with NCI-H522 it was 0.25 µM (active); with COLO 205, 1.19 µM (inactive); in the experiment with DU-145 it was 0.0476 µM (active); in the experiment on RXF 393, 20.7 µM (inactive); in the experiment with SNB-75, 21.7 µM (inactive). Also, the GI50 with SK-MEL-28 was 4.86 µM (inactive); with HOP-62 it was 0.0403 µM (active); in the experiment on PC-3, 0.0865 µM (active); in the experiment on K562, 0.0285 µM (active); with SN12C, 0.0321 µM (active); with SK-OV-3 it was 20.7 µM (inactive). Also, the GI50 in the experiment with UACC-62 is 0.0286 µM (active); with IGROV-1, 0.0908 µM (active).
On to `COc1ccccc1C1C2=C(COC2=O)OC(C)(C)Oc2cc3c(cc21)OCO3` (stereo not given), for which the GI50 with Hs-578T is 4.6 µM (inactive); in the experiment with MOLT-4 it was 3.82 µM (inactive); in the experiment with MCF7, 3.15 µM (inactive); with OVCAR-3, 2.73 µM (inactive); in the experiment on NCI/ADR-RES it was 3.18 µM (inactive); in the experiment with SF-268, 7.4 µM (inactive). The GI50 is 0.564 µM (active) with MDA-MB-435; 1.99 µM (inactive) in the experiment on NCI-H522; 1.04 µM (active) in the experiment with COLO 205; 3.57 µM (inactive) with DU-145; 1.06 µM (active) in the experiment with RXF 393; 3.59 µM (inactive) with SNB-75. For the same molecule, the GI50 was 7.28 µM (inactive) with SK-MEL-28; 4.02 µM (inactive) with HOP-62; 2.19 µM (inactive) with PC-3; 1.34 µM (inactive) in the experiment with K562; 5.48 µM (inactive) in the experiment on SN12C; 4 µM (inactive) in the experiment with SK-OV-3. The GI50 is 3.37 µM (inactive) in the experiment on UACC-62 and 5.35 µM (inactive) in the experiment on IGROV-1.

The record behind these values is ChEMBL document CHEMBL1201862, “PubChem BioAssay data set” (2004).
